The record followed here is PubChem BioAssay (NCI).

Several values for one entry are separate records, joined by “and”; a condition that tells them apart may be missing. Equal values may be shown once.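 Cultured in 96-well plates, cells were exposed to test compound for 48 hours across five concentrations. GI50 = concentration required for 50% inhibition of growth. TGI is the concentration that stops growth completely.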

Test systems include SK-MEL-5 melanoma; CAKI-1 renal; TK-10 renal; HCT-116 colon; HT29 colon; NCI-H226 lung; LOX IMVI melanoma; UACC-257 melanoma; MALME-3M melanoma; SK-MEL-2 melanoma.
What all share (experiment): growth of human tumour cells (NCI), 48 h

Consider `COC(=O)[C@H](Cc1cn(C)cn1)NC(=O)[C@@H](NC(=O)Nc1cc(C(F)(F)F)cc(C(F)(F)F)c1)C(C)C`, for which the GI50 was 2.98 µM with SK-MEL-5 melanoma; more than 10 µM in the assay on CAKI-1 renal; 9.9 µM in the assay with TK-10 renal; 1.82 µM in the assay with HCT-116 colon; 2.23 µM with HT29 colon; more than 10 µM with NCI-H226 lung. Also, the GI50 in the assay on LOX IMVI melanoma was 1.74 µM; with UACC-257 melanoma, more than 10 µM; with MALME-3M melanoma it was more than 10 µM; with SK-MEL-2 melanoma, more than 10 µM. For the same compound, the TGI with SK-MEL-5 melanoma was more than 10 µM; in the assay with CAKI-1 renal, more than 10 µM; in the assay with TK-10 renal, more than 10 µM; in the assay on HCT-116 colon, 3.55 µM; in the assay with HT29 colon, 4.89 µM; in the assay with NCI-H226 lung it was more than 10 µM. Further, the TGI with LOX IMVI melanoma was 3.4 µM; in the assay on UACC-257 melanoma, more than 10 µM; with MALME-3M melanoma it was more than 10 µM; with SK-MEL-2 melanoma, more than 10 µM.

Turning to `Nc1ncnc2c1nc(Cl)n2C1OC(CO)C(O)C1O` (stereo unspecified), the TGI was more than 42.2 µM in the assay on SK-MEL-5 melanoma; more than 100 µM in the assay on CAKI-1 renal; more than 32.7 µM in the assay on TK-10 renal; more than 100 µM in the assay on HCT-116 colon; more than 83 µM in the assay on HT29 colon; more than 85.2 µM in the assay on NCI-H226 lung. The TGI in the assay with LOX IMVI melanoma, with UACC-257 melanoma, with MALME-3M melanoma and with SK-MEL-2 melanoma was more than 100 µM in each case.

For the compound `Fc1ccc(-c2nn3c(COc4ccc(Cl)cc4)nnc3s2)cc1Oc1ccccc1`, the GI50 with SK-MEL-5 melanoma was 18.2 µM; with CAKI-1 renal, 34.9 µM; in the assay on TK-10 renal, 13.8 µM; in the assay with HCT-116 colon it was 20.6 µM; with HT29 colon it was more than 47.9 µM; in the assay with NCI-H226 lung, 28.7 µM. The GI50 was more than 42.2 µM with LOX IMVI melanoma, 41.6 µM in the assay with UACC-257 melanoma, 29 µM in the assay with MALME-3M melanoma and 38.6 µM with SK-MEL-2 melanoma. For the same compound, the TGI is 41.5 µM in the assay with SK-MEL-5 melanoma; more than 100 µM in the assay with CAKI-1 renal; 30.3 µM with TK-10 renal; more than 52.3 µM in the assay with HCT-116 colon; more than 74.8 µM in the assay with HT29 colon; 84.4 µM with NCI-H226 lung. Further, the TGI with LOX IMVI melanoma was more than 56.3 µM; with UACC-257 melanoma, more than 100 µM; with MALME-3M melanoma, 67.4 µM; with SK-MEL-2 melanoma, more than 100 µM.

`O=C(/C=C(\[O-])c1ccccc1)CCCCCCC(=O)/C=C(\[O-])c1ccccc1.O=C(/C=C(\[O-])c1ccccc1)CCCCCCC(=O)/C=C(\[O-])c1ccccc1.O=C(/C=C(\[O-])c1ccccc1)CCCCCCC(=O)/C=C(\[O-])c1ccccc1.[Nd+3].[Nd+3]`: the GI50 in the assay with SK-MEL-5 melanoma, in the assay on CAKI-1 renal, in the assay on TK-10 renal, in the assay with HCT-116 colon, with HT29 colon and in the assay with NCI-H226 lung was more than 50 µM in each case. Besides, the GI50 in the assay on LOX IMVI melanoma, with UACC-257 melanoma, in the assay on MALME-3M melanoma and in the assay with SK-MEL-2 melanoma was more than 50 µM in each case. Also, the TGI in the assay with SK-MEL-5 melanoma, in the assay with CAKI-1 renal, with TK-10 renal, in the assay with HCT-116 colon, in the assay with HT29 colon and in the assay with NCI-H226 lung was more than 50 µM throughout. The TGI with LOX IMVI melanoma, in the assay on UACC-257 melanoma, in the assay on MALME-3M melanoma and in the assay with SK-MEL-2 melanoma was more than 50 µM in each case.

On to `CCCCCCCCCCCCOC1C(C(CC(=O)N2CCN(Cc3ccc4c(c3)OCO4)CC2)NS(=O)(=O)c2cc(Cl)cc(Cl)c2)OC2OC(C)(C)OC21` (stereo unspecified), for which the GI50 in the assay with SK-MEL-5 melanoma is 39.3 µM; in the assay with CAKI-1 renal, more than 100 µM; with TK-10 renal, 58 µM; in the assay on HCT-116 colon, 6.69 µM; with HT29 colon it was 4.82 µM; in the assay with NCI-H226 lung it was 43.5 µM. Moreover, the GI50 in the assay on LOX IMVI melanoma was 16 µM; in the assay on UACC-257 melanoma, 59.1 µM; in the assay with MALME-3M melanoma, more than 93.1 µM; in the assay on SK-MEL-2 melanoma, 47.9 µM. Besides, the TGI was more than 100 µM in the assay with SK-MEL-5 melanoma; more than 100 µM in the assay with CAKI-1 renal; more than 100 µM in the assay with TK-10 renal; 36.7 µM in the assay on HCT-116 colon; 31.1 µM with HT29 colon; more than 100 µM in the assay with NCI-H226 lung. For the same compound, the TGI was more than 65.9 µM with LOX IMVI melanoma, more than 100 µM with UACC-257 melanoma, more than 100 µM in the assay on MALME-3M melanoma and more than 100 µM with SK-MEL-2 melanoma.

Take `Nc1nc(=S)c2[nH]cnc2[nH]1`: the GI50 in the assay on SK-MEL-5 melanoma is 1.59 µM and 2.68 µM and 6.68 µM; in the assay on CAKI-1 renal it was 0.264 µM and 0.345 µM and 0.888 µM; with TK-10 renal it was 0.375 µM and 0.542 µM and 1.26 µM; in the assay on HCT-116 colon it was 0.336 µM; with HT29 colon, 0.544 µM; with NCI-H226 lung, 0.72 µM and 6.95 µM. The GI50 is 0.136 µM and 0.488 µM in the assay on LOX IMVI melanoma; 0.708 µM and 5.94 µM in the assay with UACC-257 melanoma; 0.583 µM and 3.13 µM and 1.43 µM in the assay on MALME-3M melanoma; 0.741 µM and 1.7 µM and 3.7 µM in the assay on SK-MEL-2 melanoma. The TGI with TK-10 renal is 41.3 µM and 67.7 µM and 9.02 µM; in the assay with HT29 colon it was 121 µM and > 250 µM; in the assay with NCI-H226 lung, > 59.5 µM and 106 µM and 102 µM; in the assay on LOX IMVI melanoma, 2.23 µM and 8.64 µM and 19.4 µM; in the assay on UACC-257 melanoma, > 70.3 µM and 110 µM and > 250 µM; in the assay with MALME-3M melanoma it was 10.9 µM and 24.7 µM and 29.3 µM.

For the compound `CN(C)c1ccc(N=C2C=CC(=C(C#N)C#N)c3ccccc32)cc1`, the TGI in the assay on SK-MEL-5 melanoma is 0.713 µM; in the assay on CAKI-1 renal, 12.7 µM; in the assay with TK-10 renal, 16.4 µM; in the assay on HCT-116 colon, 5.26 µM; in the assay on HT29 colon, 10.4 µM; in the assay with NCI-H226 lung, 0.741 µM. Moreover, the TGI in the assay with LOX IMVI melanoma was found to be 3.49 µM; in the assay with UACC-257 melanoma it was 10.9 µM; in the assay with MALME-3M melanoma, 17.1 µM; in the assay on SK-MEL-2 melanoma, 6.7 µM.

For `O=c1nc2[nH]c3c(-c4n[nH]c(=O)[nH]c4=O)cccc3c2n[nH]1`, the GI50 with SK-MEL-5 melanoma, with CAKI-1 renal, with TK-10 renal, in the assay with HCT-116 colon, with HT29 colon and in the assay with NCI-H226 lung was more than 100 µM throughout. In addition, the GI50 in the assay on LOX IMVI melanoma, with UACC-257 melanoma, in the assay with MALME-3M melanoma and in the assay on SK-MEL-2 melanoma was more than 100 µM in each case. In addition, the TGI in the assay with SK-MEL-5 melanoma, in the assay with CAKI-1 renal, in the assay with TK-10 renal, with HCT-116 colon, in the assay on HT29 colon and with NCI-H226 lung was more than 100 µM each time. For the same compound, the TGI with LOX IMVI melanoma, in the assay with UACC-257 melanoma, in the assay with MALME-3M melanoma and in the assay with SK-MEL-2 melanoma was more than 100 µM throughout.
